The numbers were not newly measured in patent publication US20170119663A1, “NOVEL GASTRO-RETENTIVE DOSAGE FORMS” (Grünenthal GmbH, priority 2010, published 2017), which cites them from elsewhere.

Where two headings read alike, the source gives them in different places.

As to `NCC1(CC(=O)O)CCCCC1` [gabapentin], the oral bioavailability entry by setting is: (dose in the range of 300-400 mg) “approximately 60%”; (dose of 1600 mg) 35%.
`CC(C)C[C@H](CN)CC(=O)O` [pregabalin]: under “small intestine and ascending colon”, the absorption window entry is “around six”.
